In ChEMBL document CHEMBL1146152, “5-(1H-Benzimidazol-1-yl)-3-alkoxy-2-thiophenecarbonitriles as potent, selective, inhibitors of IKK-epsilon kinase” (Bioorg Med Chem Lett, 2006):
pIC50: −log10 of the molar value. In brackets after ≈: the same amount, converted by molar mass.

How the values were obtained:
[1] = target: Serine/threonine-protein kinase PLK1 (Homo sapiens, UniProt P53350); experiment: Inhibition of PLK1
[2] = target: T1, Inhibitor of nuclear factor kappa-B kinase subunit epsilon (Homo sapiens, UniProt Q14164); experiment: Inhibition of human recombinant IKKepsilon by TR-FRET assay
T1 sequence (Q14164 whole entry): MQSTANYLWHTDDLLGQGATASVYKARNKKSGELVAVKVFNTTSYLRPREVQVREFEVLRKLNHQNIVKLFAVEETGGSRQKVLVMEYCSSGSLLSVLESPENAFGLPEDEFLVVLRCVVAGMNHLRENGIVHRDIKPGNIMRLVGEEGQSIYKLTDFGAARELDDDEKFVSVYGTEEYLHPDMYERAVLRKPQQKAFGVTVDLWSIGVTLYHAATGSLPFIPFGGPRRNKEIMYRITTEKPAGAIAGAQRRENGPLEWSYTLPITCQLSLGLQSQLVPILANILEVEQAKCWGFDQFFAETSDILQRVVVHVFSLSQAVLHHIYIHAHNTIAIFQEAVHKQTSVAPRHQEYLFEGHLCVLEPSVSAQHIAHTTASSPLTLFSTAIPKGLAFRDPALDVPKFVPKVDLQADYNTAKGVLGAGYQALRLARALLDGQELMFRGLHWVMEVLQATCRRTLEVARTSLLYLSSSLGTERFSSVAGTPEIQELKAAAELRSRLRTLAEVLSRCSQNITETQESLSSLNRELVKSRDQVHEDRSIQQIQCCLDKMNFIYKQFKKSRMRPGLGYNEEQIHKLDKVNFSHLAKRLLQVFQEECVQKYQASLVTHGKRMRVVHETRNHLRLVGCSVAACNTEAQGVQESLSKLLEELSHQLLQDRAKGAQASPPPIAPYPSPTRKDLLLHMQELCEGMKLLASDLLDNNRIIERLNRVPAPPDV

[3] = target: Glycogen synthase kinase-3 (Homo sapiens, UniProt P49840+P49841); experiment: Inhibition of GSK3; type: protein assay
TGF-beta receptor type-1 = target: T2, TGF-beta receptor type-1 (Homo sapiens, UniProt P36897); experiment: Inhibition of Alk5
T2 sequence (P36897 whole entry): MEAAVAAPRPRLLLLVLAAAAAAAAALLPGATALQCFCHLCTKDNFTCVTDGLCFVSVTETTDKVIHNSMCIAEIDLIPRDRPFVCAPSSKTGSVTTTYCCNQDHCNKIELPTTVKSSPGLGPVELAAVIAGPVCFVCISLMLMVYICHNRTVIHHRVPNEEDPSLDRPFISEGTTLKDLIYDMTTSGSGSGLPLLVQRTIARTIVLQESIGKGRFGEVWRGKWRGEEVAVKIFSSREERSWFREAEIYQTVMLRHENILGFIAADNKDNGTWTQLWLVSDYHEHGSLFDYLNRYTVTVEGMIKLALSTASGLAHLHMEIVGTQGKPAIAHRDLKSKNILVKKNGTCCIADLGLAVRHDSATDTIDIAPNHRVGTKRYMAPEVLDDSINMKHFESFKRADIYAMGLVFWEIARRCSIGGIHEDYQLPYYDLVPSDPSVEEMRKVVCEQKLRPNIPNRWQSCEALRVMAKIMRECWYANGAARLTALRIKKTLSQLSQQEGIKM

[4] = target: Mitogen-activated protein kinase 14 (Homo sapiens, UniProt Q16539); experiment: Inhibition of p38alpha
[5] = target: Receptor tyrosine-protein kinase erbB-2 (Homo sapiens, UniProt P04626); experiment: Inhibition of ErB2
[6] = Aqueous solubility of the compound; type: physicochemical; conditions: buffer
[7] = target: Mitogen-activated protein kinase 11 (Homo sapiens, UniProt Q15759); experiment: Inhibition of p38beta
Cytochrome P450 3A4 = Cytochrome P450 3A4 (Homo sapiens, UniProt P08684); experiment: Inhibition of CYP3A4; type: ADME
Cytochrome P450 1A2 = target: T3, Cytochrome P450 1A2 (Homo sapiens, UniProt P05177); experiment: Inhibition of CYP1A2; type: ADME
T3 sequence (P05177 whole entry): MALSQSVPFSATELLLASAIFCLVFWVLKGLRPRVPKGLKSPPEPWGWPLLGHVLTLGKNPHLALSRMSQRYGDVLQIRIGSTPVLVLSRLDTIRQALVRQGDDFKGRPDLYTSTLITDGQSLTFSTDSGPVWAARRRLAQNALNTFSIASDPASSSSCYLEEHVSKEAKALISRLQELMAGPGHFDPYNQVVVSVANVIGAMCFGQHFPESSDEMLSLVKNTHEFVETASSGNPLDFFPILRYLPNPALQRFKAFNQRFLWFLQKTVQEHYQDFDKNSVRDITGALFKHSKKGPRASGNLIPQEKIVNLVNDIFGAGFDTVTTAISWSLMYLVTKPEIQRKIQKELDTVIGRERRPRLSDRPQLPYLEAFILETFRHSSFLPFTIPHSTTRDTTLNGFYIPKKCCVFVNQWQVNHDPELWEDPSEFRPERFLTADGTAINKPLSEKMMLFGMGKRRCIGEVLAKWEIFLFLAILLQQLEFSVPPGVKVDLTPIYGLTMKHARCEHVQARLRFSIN

[8] = target: Epidermal growth factor receptor (Homo sapiens, UniProt P00533); experiment: Inhibition of EGFR
Cytochrome P450 2C9 = Cytochrome P450 2C9 (Homo sapiens, UniProt P11712); experiment: Inhibition of CYP2C9; type: ADME
[9] = target: Mitogen-activated protein kinase 10 (Homo sapiens, UniProt P53779); experiment: Inhibition of JNK3
Cytochrome P450 2D6 = Cytochrome P450 2D6 (Homo sapiens, UniProt P10635); experiment: Inhibition of CYP2D6; type: ADME
Cytochrome P450 2D6, sequence (P10635 whole entry): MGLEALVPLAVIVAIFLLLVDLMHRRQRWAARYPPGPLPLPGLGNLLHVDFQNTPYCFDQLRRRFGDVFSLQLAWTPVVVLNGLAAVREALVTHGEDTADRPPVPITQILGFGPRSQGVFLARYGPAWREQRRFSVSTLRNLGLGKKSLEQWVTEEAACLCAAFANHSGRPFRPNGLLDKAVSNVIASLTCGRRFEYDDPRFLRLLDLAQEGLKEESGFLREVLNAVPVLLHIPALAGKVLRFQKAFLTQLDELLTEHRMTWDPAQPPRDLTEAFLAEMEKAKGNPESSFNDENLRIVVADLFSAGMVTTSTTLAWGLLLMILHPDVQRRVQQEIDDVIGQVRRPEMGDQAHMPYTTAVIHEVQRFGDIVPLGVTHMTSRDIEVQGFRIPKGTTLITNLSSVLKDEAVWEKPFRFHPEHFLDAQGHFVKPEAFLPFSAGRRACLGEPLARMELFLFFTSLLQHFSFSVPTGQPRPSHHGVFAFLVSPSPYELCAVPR

Serine/threonine-protein kinase PLK1, sequence (P53350 whole entry): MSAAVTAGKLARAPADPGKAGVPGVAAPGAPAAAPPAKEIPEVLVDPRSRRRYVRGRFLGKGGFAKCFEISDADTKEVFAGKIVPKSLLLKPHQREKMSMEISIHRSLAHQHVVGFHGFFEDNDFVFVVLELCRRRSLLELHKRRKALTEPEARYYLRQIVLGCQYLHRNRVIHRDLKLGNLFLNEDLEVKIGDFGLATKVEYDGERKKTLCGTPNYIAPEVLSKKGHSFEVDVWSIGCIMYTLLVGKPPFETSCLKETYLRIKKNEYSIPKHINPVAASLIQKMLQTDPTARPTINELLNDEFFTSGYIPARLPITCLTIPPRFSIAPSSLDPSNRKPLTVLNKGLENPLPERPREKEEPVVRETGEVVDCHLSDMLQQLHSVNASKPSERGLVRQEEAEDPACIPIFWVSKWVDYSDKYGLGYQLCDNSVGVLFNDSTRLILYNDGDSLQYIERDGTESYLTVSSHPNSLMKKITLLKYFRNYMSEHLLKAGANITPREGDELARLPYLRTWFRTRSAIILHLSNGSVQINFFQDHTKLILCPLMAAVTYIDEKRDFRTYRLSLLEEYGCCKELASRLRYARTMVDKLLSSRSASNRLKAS
Epidermal growth factor receptor, sequence (P00533 whole entry): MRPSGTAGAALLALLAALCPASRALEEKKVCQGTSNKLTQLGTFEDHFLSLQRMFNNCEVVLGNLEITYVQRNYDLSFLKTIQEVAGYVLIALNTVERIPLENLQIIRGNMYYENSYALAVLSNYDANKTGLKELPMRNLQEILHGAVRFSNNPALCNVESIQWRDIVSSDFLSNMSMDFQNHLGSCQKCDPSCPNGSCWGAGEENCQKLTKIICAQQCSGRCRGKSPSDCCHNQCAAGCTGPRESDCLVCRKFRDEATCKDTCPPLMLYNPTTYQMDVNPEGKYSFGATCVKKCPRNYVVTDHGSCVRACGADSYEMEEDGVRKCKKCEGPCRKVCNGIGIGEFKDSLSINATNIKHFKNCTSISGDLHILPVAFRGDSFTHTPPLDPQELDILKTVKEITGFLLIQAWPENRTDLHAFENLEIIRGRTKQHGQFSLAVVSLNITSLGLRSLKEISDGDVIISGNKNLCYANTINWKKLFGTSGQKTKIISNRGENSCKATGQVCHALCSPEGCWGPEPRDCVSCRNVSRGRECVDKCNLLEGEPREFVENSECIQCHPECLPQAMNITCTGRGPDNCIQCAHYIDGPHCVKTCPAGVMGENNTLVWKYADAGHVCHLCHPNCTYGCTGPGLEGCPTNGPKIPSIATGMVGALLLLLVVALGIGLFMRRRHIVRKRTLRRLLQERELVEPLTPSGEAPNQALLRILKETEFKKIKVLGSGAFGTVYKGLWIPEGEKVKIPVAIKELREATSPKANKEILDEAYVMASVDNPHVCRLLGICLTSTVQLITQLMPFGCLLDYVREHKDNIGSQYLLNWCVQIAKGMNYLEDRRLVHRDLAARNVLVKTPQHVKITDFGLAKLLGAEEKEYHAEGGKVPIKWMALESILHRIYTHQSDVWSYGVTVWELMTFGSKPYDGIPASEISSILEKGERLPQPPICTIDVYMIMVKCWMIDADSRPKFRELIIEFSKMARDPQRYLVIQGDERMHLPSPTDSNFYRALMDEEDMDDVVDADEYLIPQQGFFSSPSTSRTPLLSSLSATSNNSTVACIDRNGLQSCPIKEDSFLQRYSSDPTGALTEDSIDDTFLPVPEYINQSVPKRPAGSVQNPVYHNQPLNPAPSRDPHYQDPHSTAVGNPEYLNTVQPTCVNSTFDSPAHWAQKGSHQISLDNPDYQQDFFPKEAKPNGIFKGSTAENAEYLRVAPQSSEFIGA
Cytochrome P450 3A4, sequence (P08684 whole entry): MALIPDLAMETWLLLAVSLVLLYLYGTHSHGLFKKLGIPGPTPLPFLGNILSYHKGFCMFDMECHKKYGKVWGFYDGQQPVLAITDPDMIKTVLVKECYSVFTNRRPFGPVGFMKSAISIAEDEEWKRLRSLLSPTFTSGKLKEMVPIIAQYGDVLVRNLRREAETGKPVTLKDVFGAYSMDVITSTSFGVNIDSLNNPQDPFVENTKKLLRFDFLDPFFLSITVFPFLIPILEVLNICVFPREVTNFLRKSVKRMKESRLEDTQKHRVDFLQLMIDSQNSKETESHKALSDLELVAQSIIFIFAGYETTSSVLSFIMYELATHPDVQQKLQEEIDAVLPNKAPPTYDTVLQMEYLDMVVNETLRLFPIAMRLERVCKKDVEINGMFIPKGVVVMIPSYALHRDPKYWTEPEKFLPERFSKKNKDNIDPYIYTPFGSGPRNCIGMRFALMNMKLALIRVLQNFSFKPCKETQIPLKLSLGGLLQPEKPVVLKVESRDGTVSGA
Mitogen-activated protein kinase 11, sequence (Q15759 whole entry): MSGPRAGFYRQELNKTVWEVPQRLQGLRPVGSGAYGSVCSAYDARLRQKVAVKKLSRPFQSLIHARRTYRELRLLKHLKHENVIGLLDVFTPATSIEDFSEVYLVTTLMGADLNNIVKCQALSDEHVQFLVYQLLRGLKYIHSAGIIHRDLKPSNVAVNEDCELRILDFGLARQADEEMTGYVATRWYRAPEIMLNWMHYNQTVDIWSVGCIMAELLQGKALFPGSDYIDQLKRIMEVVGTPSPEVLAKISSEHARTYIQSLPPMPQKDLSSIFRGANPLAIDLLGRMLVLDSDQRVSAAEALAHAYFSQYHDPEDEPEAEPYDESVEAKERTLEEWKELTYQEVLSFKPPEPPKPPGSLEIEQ
Cytochrome P450 2C9, sequence (P11712 whole entry): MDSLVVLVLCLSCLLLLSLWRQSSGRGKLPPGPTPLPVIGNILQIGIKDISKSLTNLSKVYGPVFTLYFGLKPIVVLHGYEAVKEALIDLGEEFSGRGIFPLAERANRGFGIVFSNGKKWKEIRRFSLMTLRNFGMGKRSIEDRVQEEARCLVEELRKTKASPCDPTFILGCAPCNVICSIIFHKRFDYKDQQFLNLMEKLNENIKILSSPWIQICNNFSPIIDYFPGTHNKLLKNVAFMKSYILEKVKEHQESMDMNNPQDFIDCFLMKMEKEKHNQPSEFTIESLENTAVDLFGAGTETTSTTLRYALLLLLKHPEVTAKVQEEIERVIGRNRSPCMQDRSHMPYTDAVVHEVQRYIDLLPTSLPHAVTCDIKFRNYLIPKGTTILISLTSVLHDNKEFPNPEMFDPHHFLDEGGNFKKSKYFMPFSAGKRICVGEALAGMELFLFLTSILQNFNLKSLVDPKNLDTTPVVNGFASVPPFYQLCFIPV
Mitogen-activated protein kinase 10, sequence (P53779 whole entry): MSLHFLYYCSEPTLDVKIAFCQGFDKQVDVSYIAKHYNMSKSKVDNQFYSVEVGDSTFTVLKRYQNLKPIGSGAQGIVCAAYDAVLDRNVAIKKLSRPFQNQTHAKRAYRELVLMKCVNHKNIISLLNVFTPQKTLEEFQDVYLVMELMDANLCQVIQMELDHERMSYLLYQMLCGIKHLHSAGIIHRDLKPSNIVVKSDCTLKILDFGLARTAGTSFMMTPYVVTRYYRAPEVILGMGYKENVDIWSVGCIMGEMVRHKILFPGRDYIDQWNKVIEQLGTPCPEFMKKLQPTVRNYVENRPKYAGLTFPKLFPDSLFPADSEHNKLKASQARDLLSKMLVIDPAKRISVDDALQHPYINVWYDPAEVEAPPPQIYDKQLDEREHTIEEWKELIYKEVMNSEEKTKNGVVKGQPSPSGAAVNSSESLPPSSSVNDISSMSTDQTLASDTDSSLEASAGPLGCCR
Mitogen-activated protein kinase 14, sequence (Q16539 whole entry): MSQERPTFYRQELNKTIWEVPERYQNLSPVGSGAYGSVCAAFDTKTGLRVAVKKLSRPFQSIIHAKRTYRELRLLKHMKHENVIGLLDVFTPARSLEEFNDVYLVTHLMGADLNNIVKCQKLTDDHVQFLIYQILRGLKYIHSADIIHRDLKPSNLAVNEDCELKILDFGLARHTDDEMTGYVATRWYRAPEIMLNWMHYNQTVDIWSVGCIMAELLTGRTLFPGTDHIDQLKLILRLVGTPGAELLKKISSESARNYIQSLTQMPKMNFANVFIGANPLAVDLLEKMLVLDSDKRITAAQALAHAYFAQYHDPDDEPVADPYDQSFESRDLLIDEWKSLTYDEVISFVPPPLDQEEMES

## COc1cc2ncn(-c3cc(OCC4CCCO4)c(C(N)=O)s3)c2cc1OC (configuration not stated)
[1]
  pIC50: 6.60

## COc1cc2ncn(-c3cc(OCC4CCCO4)c(C#N)s3)c2cc1OC (configuration not stated)
[2]
  pIC50: 6.10

## COc1cc2ncn(-c3cc(OCCN4CCOCC4)c(C#N)s3)c2cc1OC
[2]
  pIC50: 5.80

## COc1cc2ncn(-c3cc(O[C@H](C)c4ccccc4C(F)(F)F)c(C#N)s3)c2cc1OC
[2]
  pIC50: 5.40

## COc1cc2ncn(-c3cc(OCc4ccccc4)c(C(=O)O)s3)c2cc1OC
[1]
  pIC50: 6.20
[2]
  pIC50: < 4.80

## COc1cc2ncn(-c3cc(O[C@H](C)c4ccccc4Cl)c(C(N)=O)s3)c2cc1OC [GSK-237701A]
[2]
  pIC50: 4.70

## COc1cc2ncn(-c3cc(OCC4CC4)c(C#N)s3)c2cc1OC
[2]
  pIC50: 5.50

## COc1cc2ncn(-c3cc(OCc4ccccc4S(C)(=O)=O)c(C#N)s3)c2cc1OC [GSK-319347A]
[3]
  Log IC50: > -4.8
TGF-beta receptor type-1
  pIC50: < 5.30
[4]
  pIC50: < 4.80
[5]
  pIC50: < 5.00
[6]
  solubility: 60 µM (≈ 28.2 µg/mL)
[7]
  pIC50: < 4.80
Cytochrome P450 3A4
  pIC50: < 4.30
Cytochrome P450 1A2
  pIC50: < 4.30
[1]
  pIC50: 6.10
[8]
  pIC50: < 5.00
[2]
  pIC50: 7.40
Cytochrome P450 2C9
  pIC50: < 4.30
[9]
  pIC50: < 4.80
Cytochrome P450 2D6
  pIC50: < 4.30

## COc1cc2ncn(-c3cc(OCc4ccc(S(C)(=O)=O)cc4)c(C(N)=O)s3)c2cc1OC
[1]
  pIC50: 6.90

## N#Cc1sc(-n2cnc3ccccc32)cc1OCc1ccccc1
[2]
  pIC50: 6.00

## COc1cc2ncn(-c3cc(OCc4ccc(S(C)(=O)=O)cc4)c(C#N)s3)c2cc1OC
[1]
  pIC50: 6.20
[2]
  pIC50: 5.30

## COc1cc2ncn(-c3cc(O)c(C#N)s3)c2cc1OC
[2]
  pIC50: 5.60

## COc1cc2ncn(-c3cc(OCc4ccccc4C(F)(F)F)c(C#N)s3)c2cc1OC
[2]
  pIC50: 6.60

## COc1cc2c(cc1OCCN1CCOCC1)ncn2-c1cc(OCc2ccccc2C(F)(F)F)c(C#N)s1
[2]
  pIC50: 7.30

## COc1cc2c(cc1OCCCO)ncn2-c1cc(OCc2ccccc2C(F)(F)F)c(C#N)s1
[2]
  pIC50: 7.60

## COc1cc2ncn(-c3cc(OCCN4CCCCC4)c(C#N)s3)c2cc1OC
[2]
  pIC50: 5.30

## COc1cc2ncn(-c3cc(OCc4ccc(C(N)=O)cc4)c(C#N)s3)c2cc1OC
[2]
  pIC50: 4.90
